# Test results from patent publication US8067582B2 (Bristol-Myers Squibb Company, priority 2007, dated 2011).
# Molecular target: T1, androgen receptor (AR) (Homo sapiens, UniProt P10275)
# T1 sequence (P10275 1-920): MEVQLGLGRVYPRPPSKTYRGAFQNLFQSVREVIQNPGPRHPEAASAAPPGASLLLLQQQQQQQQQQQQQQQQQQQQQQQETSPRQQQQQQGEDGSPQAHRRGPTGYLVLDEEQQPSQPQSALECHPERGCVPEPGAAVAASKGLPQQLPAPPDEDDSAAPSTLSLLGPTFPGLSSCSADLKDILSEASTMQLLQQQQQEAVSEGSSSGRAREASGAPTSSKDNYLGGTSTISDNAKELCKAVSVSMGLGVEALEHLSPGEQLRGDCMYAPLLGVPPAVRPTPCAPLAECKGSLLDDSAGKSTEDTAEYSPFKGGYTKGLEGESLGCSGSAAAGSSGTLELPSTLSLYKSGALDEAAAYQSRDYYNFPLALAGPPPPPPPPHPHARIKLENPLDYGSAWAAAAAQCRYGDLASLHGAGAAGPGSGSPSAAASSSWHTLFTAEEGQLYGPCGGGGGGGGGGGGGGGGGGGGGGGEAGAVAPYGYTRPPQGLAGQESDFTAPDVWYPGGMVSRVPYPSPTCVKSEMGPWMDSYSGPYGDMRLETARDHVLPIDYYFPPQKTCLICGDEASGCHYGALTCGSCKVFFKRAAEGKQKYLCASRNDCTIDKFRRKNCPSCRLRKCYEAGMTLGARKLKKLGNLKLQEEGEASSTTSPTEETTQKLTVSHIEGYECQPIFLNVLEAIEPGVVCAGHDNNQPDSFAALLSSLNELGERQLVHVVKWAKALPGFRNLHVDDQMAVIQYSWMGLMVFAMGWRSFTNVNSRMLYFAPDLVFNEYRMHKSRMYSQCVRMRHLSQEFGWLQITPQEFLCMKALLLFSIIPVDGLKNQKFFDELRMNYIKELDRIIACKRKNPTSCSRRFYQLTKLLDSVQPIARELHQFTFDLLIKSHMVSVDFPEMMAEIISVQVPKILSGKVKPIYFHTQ
# Assay: MDA-MB-453 Androgen Receptor Transactivation Assay (PSA-Luc reporter, 3 nM DHT)
# Type: cell-based
# Conditions: MDA-MB-453 cells, antagonism in presence of 3 nM DHT, 48 hour incubation
# Excerpt: Compounds can be tested in a cell based transactivation assay used to measure the antagonism of androgen receptor (AR) transcriptional activity. The transactivation assay provides a means of identifying antagonists that inhibit the effects of the native hormone dihydrotestosterone (DHT). […] The pGL3 PSA-Luc reporter plasmid is comprised of the cDNA for the firefly luciferase gene and the upstream promoter sequences containing the androgen response elements (AREs) of the prostate specific antigen (PSA). This plasmid functions as a reporter for the transcription-modulating activity of the AR. In order to detect antagonists, the transactivation assay is conducted in the presence of constant concentration of the natural AR hormone (DHT) to induce a defined reporter signal. Addition of increasing concentrations of the suspected antagonist will decrease the reporter signal (luciferase activity).
# MDA-MB-453 and 22 RV1 cells were maintained in DMEM (Cellgro, Cat. #10-014-CM) or RPMI 1640 (Gibco Cat. #11875-085) respectively and supplemented with 10% FBS (Invitrogen/GIBCO Life Science). Cells were bulk transfected in flasks with 1.3 ug/ml pGL3 PSA-Luc plasmid by using the Lipofectamine 2000 Reagent (Invitrogen, Cat. #11668-019) and serum-free Opti-MEM I media (Invitrogen, Cat #31985-070) according to the manufacturer's optimized conditions. Transfection was conducted at 37° C. with 5% CO2 for 16-18 hours. Following transfection, cells are washed, treated with trypsin, counted, and seeded in a 96-well plate at 30,000 cells per well in DMEM containing 10% Charcoal/Dextran Treated Fetal Bovine Serum (Gibco Cat. #11054-020) for MDA-MB-453 cells or RPMI 1640 (Gibco Cat. #110835) containing 10% FBS (Invitrogen/GIBCO Life Science) for 22 RV1 cells.
# Following transfection, cells were incubated in the absence (blank) or presence (control) of 3 nM DHT (Sigma, Cat. #A-8380) and in the presence or absence of the standard antiandrogen bicalutamide or test compounds ranging in concentrations from 10^−10 to 10^−5M. Duplicates were used for each sample. The compound dilutions were performed by the Tecan Genesis (Tecan, Triangle Park, N.C.). After a 48 hour incubation, luciferase activity was measured using the Steady-Glo Luciferase Assay System (Promega, Cat. #E2550) according to manufacturer's specifications and luminescence was measured on a Packard TopCount (PerkinElmer). For each luciferase sample reading, the percent control (in absence of compounds) was calculated as: % Control=100×[averagesample−averageblank]/[averagecontrol−averageblank] Data was plotted and the IC50 value was defined as the concentration of compound that inhibited 50% of the luciferase activity for the controls.
# Compounds described herein were tested in the AR transactivation assay described immediately above, using MDA-MB-453 cells.
row,SMILES,IC50 [µM]
1,"C[C@@]12O[C@]3(CCO[C@@H]4[C@H]3[C@H]1C(=O)N4c1ccc(C#N)c(C(F)(F)F)c1)C[C@@H]2O (single isomer, unassigned) [Example 2]",11
2,"CCNC(=O)[C@]12C(=O)N(c3ccc(C#N)c(C(F)(F)F)c3)[C@@H]3OCC[C@@]4(C[C@H](O)[C@]1(C)O4)[C@@H]32 (single isomer, unassigned) [Example 22]",> 7.5
3,"C[C@]12O[C@@]3(CCO[C@@]4(C)[C@@H]3[C@@H]1C(=O)N4c1ccc(C#N)c(C(F)(F)F)c1)C[C@H]2O (single isomer, unassigned) [Example 25]",> 7.5
4,"C[C@@]12O[C@]3(CCO[C@]4(C)[C@H]3[C@H]1C(=O)N4c1ccc(C#N)c(C(F)(F)F)c1)C[C@@H]2O (single isomer, unassigned) [Example 26]",> 7.5
5,"N#Cc1ccc(N2C(=O)[C@@H]3[C@@H]4[C@H]2OCC[C@@]42CC[C@@H]3O2)cc1C(F)(F)F (single isomer, unassigned) [Example 53]",1.2
6,"N#Cc1ccc(N2C(=O)[C@@H]3[C@@H]4[C@H]2OCC[C@]42O[C@H]3C[C@H]2O)cc1C(F)(F)F (single isomer, unassigned) [Example 55]",10.8
7,"N#Cc1ccc(N2C(=O)[C@H]3[C@H]4O[C@]5(CCO[C@@H]2[C@@H]35)C[C@@H]4O)cc1C(F)(F)F (single isomer, unassigned) [Example 57]",≥ 7.5
8,"CC[C@]12C[C@@H](O)[C@@]3(CCO[C@@H]4[C@H]3[C@H]1C(=O)N4c1ccc(C#N)c(C(F)(F)F)c1)O2 (single isomer, unassigned) [Example 59]",≥ 7.5
9,"CC[C@@]12O[C@]3(CCO[C@@H]4[C@H]3[C@H]1C(=O)N4c1ccc(C#N)c(C(F)(F)F)c1)C[C@@H]2O (single isomer, unassigned) [Example 61]",≥ 7.5
10,"CC(=O)N[C@@H]1[C@@H](O)[C@]23CCO[C@@H]4[C@H]2[C@@H](C(=O)N4c2ccc(C#N)c(C(F)(F)F)c2)[C@@]1(C)O3 (stereo in doubt) [Example 254, N-((1S,2R,3R,4R,5R,8R,12S)-7-(4-cyano-3-(trifluoromethyl)phenyl)-2-hydroxy-4-methyl-6-oxo-9,13-dioxa-7-azatetracyclo[6.3.1.1^1,4.0^5,12]tridec-3-yl)acetamide]",4.95
11,"C[C@@]12O[C@]3(CCO[C@@H]4[C@H]3[C@H]1C(=O)N4c1ccc(C#N)c(C(F)(F)F)c1)C[C@H]2N=[N+]=[N-] [Example 12, 4-((1S,3R,4R,5R,8R,12S)-3-azido-4-methyl-6-oxo-9,13-dioxa-7-azatetracyclo[6.3.1.1^1,4.0^5,12]tridec-7-yl)-2-(trifluoromethyl)benzonitrile]",> 7.5
12,"C[C@@]12O[C@]3(CCO[C@@H]4[C@H]3[C@H]1C(=O)N4c1ccc(C#N)c(C(F)(F)F)c1)C[C@H]2N [Example 13, 4-((1S,3R,4R,5R,8R,12S)-3-amino-4-methyl-6-oxo-9,13-dioxa-7-azatetracyclo[6.3.1.1^1,4.0^5,12]tridec-7-yl)-2-(trifluoromethyl)benzonitrile]",> 7.5
13,"C[C@@]12C[C@H](O)[C@]3(CCO[C@H]4[C@@H]3[C@]1(C(=O)OCc1ccccc1)C(=O)N4c1ccc(C#N)c(C(F)(F)F)c1)O2 [Example 23, Benzyl (1R,2S,4R,5R,8S,12R)-7-(4-cyano-3-(trifluoromethyl)phenyl)-2-hydroxy-4-methyl-6-oxo-9,13-dioxa-7-azatetracyclo[6.3.1.1^1,4.0^5,12]tridecane-5-carboxylate]",1.2
14,"C[C@@]12C[C@H](O)[C@]3(CCO[C@H]4[C@@H]3[C@]1(CO)C(=O)N4c1ccc(C#N)c(C(F)(F)F)c1)O2 [Example 24, 4-((1R,2S,4R,5R,8S,12R)-2-hydroxy-5-(hydroxymethyl)-4-methyl-6-oxo-9,13-dioxa-7-azatetracyclo[6.3.1.1^1,4.0^5,12]tridec-7-yl)-2-(trifluoromethyl)benzonitrile]",5.45
15,"C[C@@]12C[C@@](C)(O)[C@]3(CCO[C@H]4[C@@H]3[C@@H]1C(=O)N4c1ccc(C#N)c(C(F)(F)F)c1)O2 [Example 37, 4-((1R,2R,4R,5S,8S,12R)-2-hydroxy-2,4-dimethyl-6-oxo-9,13-dioxa-7-azatetracyclo[6.3.1.1^1,4.0^5,12]tridec-7-yl)-2-(trifluoromethyl)benzonitrile]",1.16
16,"C[C@@]12C[C@H](O)[C@]3(CO[C@H]4[C@@H]3[C@@H]1C(=O)N4c1ccc(C#N)c(C(F)(F)F)c1)O2 [Example 38, 4-((1S,4S,7S,8R,10S,11R)-10-Hydroxy-8-methyl-6-oxo-3,12-dioxa-5-azatetracyclo[5.3.1.1^1,8.0^4,11]dodec-5-yl)-2-(trifluoromethyl)benzonitrile]",1.09
17,"C[C@@]12C[C@H](N)[C@]3(CCO[C@H]4[C@@H]3[C@@H]1C(=O)N4c1ccc(C#N)c(Cl)c1)O2 [Example 45, 4-((1R,2S,4R,5S,8S,12R)-2-amino-4-methyl-6-oxo-9,13-dioxa-7-azatetracyclo[6.3.1.1^1,4.0^5,12]tridec-7-yl)-2-chlorobenzonitrile]",12.8
18,"CNS(=O)(=O)N[C@H]1C[C@@]2(C)O[C@@]13CCO[C@H]1[C@@H]3[C@@H]2C(=O)N1c1ccc(C#N)c(Cl)c1 [Example 47, N-((1R,2S,4R,5S,8S,12R)-7-(3-Chloro-4-cyanophenyl)-4-methyl-6-oxo-9,13-dioxa-7-azatetracyclo[6.3.1.1^1,4.0^5,12]tridec-2-yl)-N′-methylsulfamide]",1.61
19,"C[C@]12CC[C@@]3(CCO[C@@H]4[C@H]3[C@H]1C(=O)N4c1ccc(C#N)c(C(F)(F)F)c1)O2 [Example 51, 4-((1S,4S,5R,8R,12S)-4-methyl-6-oxo-9,13-dioxa-7-azatetracyclo[6.3.1.1^1,4.0^5,12]tridec-7-yl)-2-(trifluoromethyl)benzonitrile]",1.81

# Same assay, conditions: MDA-MB-453 cells, antagonism in presence of 3 nM DHT, 48 hour incubation, read-out: IC50
row,SMILES,IC50 [µM]
1,"C[C@@]12C[C@H](O)[C@]3(CCO[C@H]4[C@@H]3[C@@H]1C(=O)N4c1ccc(F)c(Cl)c1)O2 [Example 15, (1R,2S,4R,5S,8S,12R)-7-(3-chloro-4-fluorophenyl)-2-hydroxy-4-methyl-9,13-dioxa-7-azatetracyclo[6.3.1.1^1,4.0^5,12]tridecan-6-one]",10.5
2,"C[C@@]12C[C@H](O)[C@]3(CCO[C@H]4[C@@H]3[C@@H]1C(=O)N4c1cc(Cl)cc(Cl)c1)O2 [Example 117, (1R,2S,4R,5S,8S,12R)-7-(3,5-dichlorophenyl)-2-hydroxy-4-methyl-9,13-dioxa-7-azatetracyclo[6.3.1.1^1,4.0^5,12]tridecan-6-one]",2.48
3,"C[C@]12O[C@@]3(CCO[C@H]4[C@@H]3[C@@H]1C(=O)N4c1ccc(C#N)c(F)c1)C[C@H]2O [Example 137, 2-Fluoro-4-((1S,3R,4S,5S,8S,12R)-3-hydroxy-4-methyl-6-oxo-9,13-dioxa-7-azatetracyclo[6.3.1.1^1,4.0^5,12]tridec-7-yl)benzonitrile]",6.24
